Reference: patent US10167279B2 (NOVARTIS AG, priority 2014, dated 2019)

Molecular target: C-Raf FL (Homo sapiens (Human), UniProt P04049, Y340E/Y341E)
Test: In vitro Raf activity determination (Alpha Screen, phospho-MEK), C-Raf FL (full length, Y340E/Y341E)
Format: biochemical
Settings: ATP 1 μM; 60 min pre-incubation; 1 hour reaction; column head does not say FL or TR
Method in brief: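 Sf9-expressed C-Raf incubated with biotinylated kinase-dead MEK1 (K97R) in 50 mM Tris pH 7.5, 15 mM MgCl2, 0.01% BSA, 1 mM DTT with compound, 60 min at room temperature. Phospho-MEK detected by anti-p-MEK AlphaScreen luminescence; IC50 by non-linear regression.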

Sequence of C-Raf FL (P04049 whole entry Y340E/Y341E): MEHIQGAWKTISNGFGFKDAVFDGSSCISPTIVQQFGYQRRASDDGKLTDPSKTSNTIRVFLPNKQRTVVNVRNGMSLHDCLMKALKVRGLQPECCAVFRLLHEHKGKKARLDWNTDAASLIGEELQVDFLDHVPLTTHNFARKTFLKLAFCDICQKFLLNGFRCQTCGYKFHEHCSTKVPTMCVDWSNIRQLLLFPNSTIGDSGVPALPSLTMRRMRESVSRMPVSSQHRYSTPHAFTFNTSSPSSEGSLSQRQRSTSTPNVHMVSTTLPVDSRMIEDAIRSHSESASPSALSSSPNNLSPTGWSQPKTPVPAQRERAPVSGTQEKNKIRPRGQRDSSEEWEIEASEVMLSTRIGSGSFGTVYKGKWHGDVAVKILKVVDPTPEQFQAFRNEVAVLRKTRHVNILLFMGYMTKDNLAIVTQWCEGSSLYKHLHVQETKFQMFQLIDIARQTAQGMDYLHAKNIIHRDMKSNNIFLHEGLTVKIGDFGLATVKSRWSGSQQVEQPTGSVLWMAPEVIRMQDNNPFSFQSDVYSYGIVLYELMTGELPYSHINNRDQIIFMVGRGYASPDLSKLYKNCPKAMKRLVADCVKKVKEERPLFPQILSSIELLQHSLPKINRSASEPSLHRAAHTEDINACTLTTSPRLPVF
Sequence of C-Raf FL (P63104 whole entry partner): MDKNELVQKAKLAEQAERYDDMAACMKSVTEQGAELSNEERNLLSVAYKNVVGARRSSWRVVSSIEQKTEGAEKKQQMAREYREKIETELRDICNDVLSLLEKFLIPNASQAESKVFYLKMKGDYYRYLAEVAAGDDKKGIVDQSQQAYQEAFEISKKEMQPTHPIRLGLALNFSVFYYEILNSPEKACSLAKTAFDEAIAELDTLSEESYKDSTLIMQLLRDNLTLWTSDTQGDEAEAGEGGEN

Structure (SMILES)	IC50
Cc1nc2cc(C3CCOCC3)cc(-c3cc(NC(=O)c4ccnc(C(C)(F)F)c4)ccc3C)c2[nH]1 [Example 222, 2-(1,1-difluoroethyl)-N-(4-methyl-3-(2-methyl-5-(tetrahydro-2H-pyran-4-yl)-1H-benzo[d]imidazol-7-yl)phenyl) isonicotinamide]	0.4 nM
Cc1nc2cc(C3CCOCC3)cc(-c3cc(NC(=O)c4ccnc(C(C)(C)C#N)c4)ccc3C)c2[nH]1 [Example 223, 2-(2-cyanopropan-2-yl)-N-(4-methyl-3-(2-methyl-5-(tetrahydro-2H-pyran-4-yl)-1H-benzo[d]imidazol-7-yl)phenyl) isonicotinamide]	0.6 nM
Cc1nc2cc(C3CCOCC3)cc(-c3cc(NC(=O)c4cc(C(F)(F)F)ccn4)ccc3C)c2[nH]1 [Example 224, N-(4-methyl-3-(2-methyl-5-(tetrahydro-2H-pyran-4-yl)-1H-benzo[d]imidazol-7-yl)penyl)-4-(trifluoromethyl) picolinamide]	5 nM
CCOc1nnc(-c2cc(NC(=O)c3ccnc(C(C)(F)F)c3)ccc2C)cc1C1CCOCC1 [Example 225, 2-(1,1-difluoroethyl)-N-(3-(6-ethoxy-5-(tetrahydro-2H-pyran-4-yl)pyridazin-3-yl)-4-methylphenyl) isonicotinamide]	0.02 nM
CCOc1nnc(-c2cc(NC(=O)c3cc(C(F)(F)F)c[nH]c3=O)ccc2C)cc1C1CCOCC1 [Example 226, N-(3-(6-ethoxy-5-(tetrahydro-2H-pyran-4-yl)pyridazin-3-yl)-4-methylphenyl)-2-oxo-5-(trifluoromethyl)-1,2-dihydropyridine-3-carboxamide]	4 nM
CCOc1nnc(-c2cc(NC(=O)c3ccnc(C4(C(F)(F)F)CC4)c3)ccc2C)cc1C1CCOCC1 [Example 227, N-(3-(6-ethoxy-5-(tetrahydro-2H-pyran-4-yl)pyridazin-3-yl)-4-methylphenyl)-2-(1-(trifluoromethyl)cyclopropyl) isonicotinamide]	0.2 nM
CCOc1nnc(-c2cc(NC(=O)c3cc(C(F)(F)F)c(Cl)cn3)ccc2C)cc1C1CCOCC1 [Example 228, 5-chloro-N-(3-(6-ethoxy-5-(tetrahydro-2H-pyran-4-yl)pyridazin-3-yl)-4-methylphenyl)-4-(trifluoromethyl) picolinamide]	0.06 nM
CCOc1nnc(-c2cc(NC(=O)c3ccnc(C#N)c3)ccc2C)cc1C1CCOCC1 [Example 229, 2-cyano-N-(3-(6-ethoxy-5-(tetrahydro-2H-pyran-4-yl)pyridazin-3-yl)-4-methylphenyl)]	0.7 nM
CCOc1nnc(-c2cc(NC(=O)c3cnc(C(F)(F)F)cn3)ccc2C)cc1C1CCOCC1 [Example 230, N-(3-(6-ethoxy-5-(tetrahydro-2H-pyran-4-yl)pyridazin-3-yl)-4-methylphenyl)-5-(trifluoromethyl) pyrazine-2-carboxamide]	11 nM
CCOc1nnc(-c2cc(NC(=O)c3cncc(C(F)(F)F)c3)ccc2C)cc1C1CCOCC1 [Example 231, N-(3-(6-ethoxy-5-(tetrahydro-2H-pyran-4-yl)pyridazin-3-yl)-4-methylphenyl)-5-(trifluoromethyl) nicotinamide]	0.2 nM
CCOc1nnc(-c2cc(NC(=O)c3cc(C(F)(F)F)ncn3)ccc2C)cc1C1CCOCC1 [Example 232]	0.03 nM
CCOc1nnc(-c2cc(NC(=O)c3ccnc(C(C)(C)F)c3)cnc2C)cc1C1CCOCC1 [Example 233, N-(5-(6-ethoxy-5-(tetrahydro-2H-pyran-4-yl)pyridazin-3-yl)-6-methylpyridin-3-yl)-2-(2-fluoropropan-2-yl) isonicotinamide]	2 nM
CCOc1nnc(-c2cc(NC(=O)c3cccc(C(F)(F)F)c3)cnc2C)cc1C1CCOCC1 [Example 234, N-(5-(6-ethoxy-5-(tetrahydro-2H-pyran-4-yl)pyridazin-3-yl)-6-methylpyridin-3-yl)-3-(trifluoromethyl) benzamide]	0.08 nM
CCOc1nnc(-c2cc(NC(=O)c3ccnc(C(F)(F)F)c3)cnc2C)cc1C1CCOCC1 [Example 236, N-(5-(6-ethoxy-5-(tetrahydro-2H-pyran-4-yl)pyridazin-3-yl)-6-methylpyridin-3-yl)-2-(trifluoromethyl) isonicotinamide]	0.3 nM
CCOc1nnc(-c2cc(NC(=O)c3cnnc(C(F)(F)F)c3)ccc2C)cc1C1CCOCC1 [Example 237, N-(5-(6-ethoxy-5-(tetrahydro-2H-pyran-4-yl)pyridazin-3-yl)-4-methylphenyl)-6-(trifluoromethyl) pyridazine-4-carboxamide]	0.1 nM
CCOc1nnc(-c2cc(NC(=O)c3ccnc(C(C)(C)F)c3)ccc2C)cc1C1CCOCC1 [Example 238, N-(3-(6-ethoxy-5-(tetrahydro-2H-pyran-4-yl)pyridazin-3-yl)-4-methylphenyl)-2-(2-fluoropropan-2-yl) isonicotinamide]	0.07 nM

Structure (SMILES)	IC50
CCOc1nnc(-c2cc(NC(=O)c3ccnc(C(F)(F)F)c3)ccc2C)cc1C1CCOCC1 [Example 239, N-(3-(6-ethoxy-5-(tetrahydro-2H-pyran-4-yl)pyridazin-3-yl)-4-methylphenyl)-2-(trifluoromethyl) isonicotinamide]	0.04 nM
CCOc1nnc(-c2cc(NC(=O)c3cc(C(F)(F)F)cnn3)ccc2C)cc1C1CCOCC1 [Example 240, N-(3-(6-ethoxy-5-(tetrahydro-2H-pyran-4-yl)pyridazin-3-yl)-4-methylphenyl)-5-(trifluoromethyl) pyridazine-3-carboxamide]	0.04 nM
CCOc1nnc(-c2cc(NC(=O)c3cnc(N4CCN(CC)CC4)c(C(F)(F)F)c3)ccc2C)cc1C1CCOCC1 [Example 241, N-(3-(6-ethoxy-5-(tetrahydro-2H-pyran-4-yl)pyridazin-3-yl)-4-methylphenyl)-6-(4-ethylpiperazin-1-yl)-5-(trifluoromethyl) nicotinamide]	0.1 nM
Cc1ccc(NC(=O)c2ccnc(C(F)(F)F)c2)cc1-c1cc2c(c(C3CCOCC3)c1)NC(=O)C(C)(CO)O2 (centres unmarked) [Example 242, N-(3-(2-(hydroxymethyl)-2-methyl-3-oxo-5-(tetrahydro-2H-pyran-4-yl)-3,4-dihydro-2H-benzo[b][1,4]oxazin-7-yl)-4-methylphenyl)-2-(trifluoromethyl) isonicotinamide]	0.1 nM
Cc1ccc(NC(=O)c2ccnc(C(C)(F)F)c2)cc1-c1cc(OCCO)nc(C2CCOCC2O)c1 (centres unmarked) [Example 243, 2-(1,1-difluoroethyl)-N-(3-(2-(2-hydroxyethoxy)-6-(3-hydroxytetrahydro-2H-pyran-4-yl)pyridin-4-yl)-4-methylphenyl) isonicotinamide]	1 nM
Cc1ccc(NC(=O)c2ccnc(C(C)(C)F)c2)cc1-c1cc(OCCO)nc(C2CCOCC2O)c1 (centres unmarked) [Example 244, 2-(2-fluoropropan-2-yl)-N-(3-(2-(2-hydroxyethoxy)-6-(3-hydroxytetrahydro-2H-pyran-4-yl)pyridin-4-yl)-4-methylphenyl) isonicotinamide]	3 nM
Cc1ccc(NC(=O)c2cnnc(C(F)(F)F)c2)cc1-c1cc(OCCO)nc(C2CCOCC2O)c1 (centres unmarked) [Example 245]	1 nM
Cc1ccc(NC(=O)c2ccnc(C(C)(C)C#N)c2)cc1-c1cc(OCCO)nc(C2CCOCC2O)c1 (centres unmarked) [Example 246]	6 nM
Cc1ccc(NC(=O)c2cc(C(F)(F)F)ccn2)cc1-c1cc(OCCO)nc(C2CCOCC2O)c1 (centres unmarked) [Example 247]	0.4 nM
Cc1ccc(NC(=O)c2cc(C(F)(F)F)c[nH]c2=O)cc1-c1cc(OCCO)nc(C2CCOCC2)c1 [Example 252, N-(3-(2-(2-hydroxyethoxy)-6-(terahydro-2H-pyran-4-yl)pyridin-4-yl)-4-methylphenyl)-2-oxo-5-(trifluoromethyl)-1,2-dihydropyridine-3-carboxamide]	4 nM
Cc1ccc(NC(=O)c2cc(C(F)(F)F)cn(C)c2=O)cc1-c1cc(OCCO)nc(C2CCOCC2)c1 [Example 253, N-(3-(2-(2-hydroxyethoxy)-6-(terahydro-2H-pyran-4-yl)pyridin-4-yl)-4-methylphenyl)-1-methyl-2-oxo-5-(trifluoromethyl)-1,2-dihydropyridine-3-carboxamide]	0.1 nM
Cc1ccc(NC(=O)c2ccnc(C(F)(F)F)n2)cc1-c1cc(OCCO)nc(C2CCOCC2)c1 [Example 254, N-(3-(2-(2-hydroxyethoxy)-6-(terahydro-2H-pyran-4-yl)pyridin-4-yl)-4-methylphenyl)-2-(trifluoromethyl) pyrimidine-4-carboxamide]	0.3 nM
Cc1ccc(NC(=O)c2cc3cnccc3nc2C(F)(F)F)cc1-c1cc(OCCO)nc(C2CCOCC2)c1 [Example 255, N-(3-(2-(2-hydroxyethoxy)-6-(terahydro-2H-pyran-4-yl)pyridin-4-yl)-4-methylphenyl)-2-(trifluoromethyl)-1,6-naphthyridine-3-carboxamide]	0.2 nM
Cc1ccc(NC(=O)c2cc(C(C)(C)C)nc(O)n2)cc1-c1cc(OCCO)nc(C2CCOCC2)c1 [Example 256, 6-(tert-butyl)-2-hydroxy-N-(3-(2-(2-hydroxyethoxy)-6-(tetrahydro-2H-pyran-4-yl)pyridin-4-yl)-4-methylphenyl)pyrimidine-4-carboxamide]	0.1 nM
Cc1ccc(NC(=O)c2cc(C(F)(F)F)nc(N(C)C)n2)cc1-c1cc(OCCO)nc(C2CCOCC2)c1 [Example 257, 2-(dimethylamino)-N-(3-(2-(2-hydroxyethoxy)-6-(tetrahydro-2H-pyran-4-yl)pyridin-4-yl)-4-methylphenyl)-6-(trifluoromethyl) pyrimidine-4-carboxamide]	1 nM
Cc1ccc(NC(=O)c2cc(C(F)(F)F)cnn2)cc1-c1cc(OCCO)nc(C2CCOCC2)c1 [Example 258, N-(3-(2-(2-hydroxyethoxy)-6-(tetrahydro-2H-pyran-4-yl)pyridin-4-yl)-4-methylphenyl)-5-(trifluoromethyl) pyridazine-3-carboxamide]	0.02 nM
